Laboratory results from PubChem BioAssay (NCI).
Several values for one entry are separate records, joined by “and”; a condition that tells them apart may be missing. Identical values can stand only once.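 1) Cells in 96-well plates. 2) Compound, 48 h, 5 concentrations. 3) Linear interpolation between surrounding doses. 4) Unreached endpoint = highest concentration. The concentration for 50% growth inhibition is given as GI50. TGI denotes the concentration required for complete inhibition of growth.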

Assays:
Assay in all cases: NCI anticancer screen, dose series, 48 h
[1] = tested on: KM20L2 colon
[2] = tested on: OVCAR-3 ovarian
[3] = tested on: SN12C renal
[4] = tested on: XF 498 CNS
[5] = tested on: 786-0 renal
[6] = tested on: UACC-257 melanoma
[7] = tested on: TK-10 renal
[8] = tested on: RXF 393 renal
[9] = tested on: BT-549 breast
[10] = tested on: HS 578T breast

| SMILES | TGI [1] [µM] | TGI [2] [µM] | TGI [3] [µM] | TGI [4] [µM] | TGI [5] [µM] | TGI [6] [µM] | TGI [7] [µM] | TGI [8] [µM] | GI50 [1] [µM] | GI50 [2] | GI50 [3] [µM] | GI50 [5] | GI50 [6] | GI50 [7] [µM] | GI50 [8] [µM] | GI50 [4] [µM] | GI50 [9] | TGI [9] | GI50 [10] [µM] | TGI [10] [µM] |
| --- | --- | --- | --- | --- | --- | --- | --- | --- | --- | --- | --- | --- | --- | --- | --- | --- | --- | --- | --- | --- |
| COc1cc2c3cc1Oc1c(OC)c(OC)cc4c1[C@@H](Cc1ccc(O)c(c1)Oc1ccc(cc1)C[C@@H]3N(C)CC2)N(C)CC4 | 21.1 | 29.5 | 46.5 | 23.8 | 25.6 | 10.9 | 35.4 | 25.9 |  |  |  |  |  |  |  |  |  |  |  |  |
| Cc1cc(Cl)ccc1N=C1NC(=O)C(CC(=O)Nc2cccc(C)c2C)S1 (stereo unspecified) | 87.2 | > 100 | 82.3 | 39 | 47.9 | > 100 | > 100 |  |  |  |  |  |  |  |  |  |  |  |  |  |
| CN(CCCN1C(=O)c2cccc3cc([N+](=O)[O-])cc(c23)C1=O)CCN(C)CCCN1C(=O)c2cccc3cc([N+](=O)[O-])cc(c23)C1=O | > 39.3 | > 39.3 | > 39.3 | > 39.3 | > 39.3 | > 39.3 | > 39.3 | > 39.3 |  |  |  |  |  |  |  |  |  |  |  |  |
| CCOC(=O)C(=O)Nc1c(C)cccc1C(C)(C)C | > 100 | > 100 | > 100 | > 100 | > 100 | > 100 | > 100 | > 100 |  |  |  |  |  |  |  |  |  |  |  |  |
| CC(C)N1C(C)[C@@H](c2ccccc2)O[P@@]1(=O)CC1=CCCCC1 (stereo partly specified) | > 100 | > 100 | > 100 | > 100 | > 100 | > 100 | > 100 | > 100 |  |  |  |  |  |  |  |  |  |  |  |  |
| O=[N+]([O-])c1cccc(S(=O)(=O)N/N=C/c2cc(I)cc([N+](=O)[O-])c2O)c1 | > 100 | 43.9 | 64.6 |  | > 100 | 57 | 95.2 | 56.3 |  |  |  |  |  |  |  |  |  |  |  |  |
| Nn1c(-c2cccc(Cl)c2)nc2ccccc2c1=O | > 100 | > 100 | > 100 | > 100 | > 100 | > 100 | > 100 |  |  |  |  |  |  |  |  |  |  |  |  |  |
| O=[N+]([O-])c1ccc(C2SCc3nc4ccccc4n32)cc1 (stereo unspecified) | > 100 |  | > 100 | 80.6 | > 100 | > 100 | > 100 | > 100 |  |  |  |  |  |  |  |  |  |  |  |  |
| CC(=O)[CH-]C(=O)c1ccccc1.CC(=O)[CH-]C(=O)c1ccccc1.CC[C@H](/C=C/C(C)[C@H]1CCC2[C@@H]3CC=C4C[C@@H]([O-])CC[C@]4(C)C3CC[C@@]21C)C(C)C.CC[C@H](/C=C/C(C)[C@H]1CCC2[C@@H]3CC=C4C[C@@H]([O-])CC[C@]4(C)C3CC[C@@]21C)C(C)C.Cl.[Ti+4] (stereo partly specified) | > 25 | > 25 | > 25 |  | > 25 | > 25 | > 25 | > 25 | > 25 | > 25 µM | > 25 | 23 µM | > 25 µM | > 25 | > 25 |  |  |  |  |  |
| CCC[CH2][Sn]([CH2]CCC)([O]C(=O)c1cc(F)ccc1F)[O]C(=O)c1cc(F)ccc1F | 3.37 | 2.61 | 2.39 | 3.21 | 2.37 | 2.49 | 3.01 | 1.12 | 1.76 | 1.33 µM | 1.16 | 1.15 µM | 1.24 µM | 1.64 | 0.326 | 1.8 |  |  |  |  |
| O=C1NC2(CCCCC2)C2CCCCC=C12 (stereo unspecified) |  | > 100 | > 100 | > 100 | > 100 | > 100 | > 100 | > 100 |  |  |  |  |  |  |  |  |  |  |  |  |
| CN(C)c1cc2c(Nc3ccc4c(cnn4Cc4ccccc4)c3)ncnc2cn1 |  | > 25 | > 25 |  | > 25 | > 25 | > 23.2 | > 20.8 |  | 6.43 µM | 12.1 | 8.76 µM | 13.2 µM | 0.741 | 8.3 |  | 10.7 µM | > 25 µM | 16.6 | > 25 |
| CSc1nnc(-c2cc3c([nH]c4ccccc43)c(-c3cccc(O)c3)n2)n1-c1ccc(C)cc1 |  | 9.24 | 81.6 |  | 32.2 | 44.7 | 9.64 | 6.51 |  | 2.64 µM | 5.83 | 4.61 µM | 5 µM | 3.01 | 2.11 |  | 2.37 µM | 9.27 µM | 3.86 | 72.1 |
| COc1cc([C@@H]2OC(=O)C3C2C(=O)O[C@H]3c2ccc(O)c(OC)c2)ccc1O (stereo partly specified) | > 100 | > 100 | > 100 |  | > 100 | > 100 | > 100 | > 100 |  |  |  |  |  |  |  |  |  |  |  |  |
| CC(=O)O[C@@H]1C2=C(C)C3(CC3)[C@@](C)(O)C(=O)C2=C[C@@]1(C)CO |  | 1.16 | 13.9 |  | 6.1 | 5.38 | > 100 | 0.658 |  | 0.319 µM | 1.86 | 2.04 µM | 1.65 µM | 2.6 | 0.24 |  | 0.509 µM | 2.79 µM | 1.68 | 5.75 |
| CC(C)c1[nH]nc2c(NCc3ccc(-c4ccccn4)cc3)nc(SCCN)nc12 |  | 10.1 | 0.185 |  |  | 0.0875 | 10.1 | 0.0532 |  | 0.0189 µM and 0.0162 µM | 0.0238 | 0.143 µM and 0.327 µM | 0.0414 µM and 0.0235 µM | 0.155 | 0.0169 |  | 0.0322 µM and 0.067 µM | 0.168 µM and 0.642 µM | 0.0151 |  |
| C=C1C(=O)O[C@@H]2CC(CO)=C([C@@H](C)CCCO)[C@@H](OC(=O)/C(C)=C\C)[C@H]12 |  | 26.2 | 43.5 |  | 52.1 | 38.1 | 45.9 | 37.7 |  |  |  |  |  |  |  |  |  | > 90.6 µM |  | > 100 |
| Cc1cc(Cl)nc(N(CCCNc2ccnc3cc(Cl)ccc23)Cc2cccs2)n1 |  | 13.4 | 12.5 |  | 4.35 | 5.49 | 12.1 | 5.22 |  | 2.19 µM | 1.4 | 1.49 µM | 2.19 µM | 2.07 | 1.37 |  | 2.52 µM | 9.13 µM | 2.21 | 12.9 |
| CCCCSc1nc(N)c2cn[nH]c2n1 |  | 35.1 | 28.5 |  | 57.3 | 35 | 29.4 | > 44 |  | 17.1 µM | 12.8 | 21.2 µM | 19.4 µM | 7.99 | 9.25 |  | 20.1 µM | 43.2 µM | 22 | 63.2 |
